# Test results: ChEMBL document CHEMBL1201862, “PubChem BioAssay data set” (2004)
#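 96-well plates; 48 h exposure; 5 concentrations. Endpoints by linear interpolation between flanking doses. Not reached: highest tested concentration assigned. Here, GI50 denotes the concentration required for 50% inhibition of growth.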 The source made the active and inactive calls. Rule as the data show it: active = GI50 up to about 1.1 µM and inactive = higher.
# Experiments:
# Assay in all cases: NCI-60 cell line screen, 48 h
# HOP-92 = system: HOP-92
# BT-549 = system: BT-549
# MDA-N = system: MDA-N
# MOLT-4 = system: MOLT-4
# NCI-H226 = system: NCI-H226
# HT-29 = system: HT-29
# MDA-MB-435 = system: MDA-MB-435
# 786-0 = system: 786-0
# CAKI-1 = system: CAKI-1
# RPMI-8226 = system: RPMI-8226
# DU-145 = system: DU-145
# PC-3 = system: PC-3
# MCF7 = system: MCF7
# SK-MEL-2 = system: SK-MEL-2
# SN12C = system: SN12C
# SK-MEL-28 = system: SK-MEL-28
# SF-268 = system: SF-268
# HCT-116 = system: HCT-116
# CCRF-CEM = system: CCRF-CEM
# SNB-75 = system: SNB-75
# SR = system: SR
# OVCAR-4 = system: OVCAR-4
# SK-OV-3 = system: SK-OV-3
# A549 = system: A549
# ACHN = system: ACHN
# U-251 = system: U-251
# UO-31 = system: UO-31
# K562 = system: K562
# UACC-62 = system: UACC-62
# HOP-62 = system: HOP-62
# Malme-3M = system: Malme-3M
# NCI-H522 = system: NCI-H522
# LOX IMVI = system: LOX IMVI
# SNB-19 = system: SNB-19
# SK-MEL-5 = system: SK-MEL-5
# UACC-257 = system: UACC-257
# OVCAR-3 = system: OVCAR-3
# NCI-H460 = system: NCI-H460
# SF-295 = system: SF-295
# HL-60 = system: HL-60
# EKVX = system: EKVX
# SW-620 = system: SW-620
# OVCAR-8 = system: OVCAR-8
# TK-10 = system: TK-10
# NCI/ADR-RES = system: NCI/ADR-RES
# OVCAR-5 = system: OVCAR-5
# NCI-H23 = system: NCI-H23
# KM12 = system: KM12
# COLO 205 = system: COLO 205
# Hs-578T = system: Hs-578T
# HCT-15 = system: HCT-15
# T47D = system: T47D
# IGROV-1 = system: IGROV-1
# M14 = system: M14
smiles,measurement,setting,value
CC(=O)CSc1c(-c2ccccc2)c(=O)n(-c2ccccc2)c(=S)n1-c1ccccc1,GI50,HOP-92,> 100 µM (inactive)
same,GI50,BT-549,> 100 µM (inactive)
same,GI50,MDA-N,> 100 µM (inactive)
same,GI50,MOLT-4,47.4 µM (inactive)
same,GI50,NCI-H226,> 100 µM (inactive)
same,GI50,HT-29,> 100 µM (inactive)
same,GI50,MDA-MB-435,> 100 µM (inactive)
same,GI50,786-0,> 100 µM (inactive)
same,GI50,CAKI-1,> 100 µM (inactive)
same,GI50,RPMI-8226,> 100 µM (inactive)
same,GI50,DU-145,> 100 µM (inactive)
same,GI50,PC-3,> 100 µM (inactive)
same,GI50,MCF7,> 100 µM (inactive)
same,GI50,SK-MEL-2,> 100 µM (inactive)
same,GI50,SN12C,> 100 µM (inactive)
same,GI50,SK-MEL-28,> 100 µM (inactive)
same,GI50,SF-268,> 100 µM (inactive)
same,GI50,HCT-116,> 100 µM (inactive)
same,GI50,CCRF-CEM,> 100 µM (inactive)
same,GI50,SNB-75,61.2 µM (inactive)
same,GI50,SR,> 100 µM (inactive)
same,GI50,OVCAR-4,> 100 µM (inactive)
same,GI50,SK-OV-3,> 100 µM (inactive)
same,GI50,A549,> 100 µM (inactive)
same,GI50,ACHN,> 100 µM (inactive)
same,GI50,U-251,> 100 µM (inactive)
same,GI50,UO-31,> 100 µM (inactive)
same,GI50,K562,> 100 µM (inactive)
same,GI50,UACC-62,> 100 µM (inactive)
same,GI50,HOP-62,> 100 µM (inactive)
same,GI50,Malme-3M,> 100 µM (inactive)
same,GI50,NCI-H522,> 100 µM (inactive)
same,GI50,LOX IMVI,> 100 µM (inactive)
same,GI50,SNB-19,> 100 µM (inactive)
same,GI50,SK-MEL-5,> 100 µM (inactive)
same,GI50,UACC-257,> 100 µM (inactive)
same,GI50,OVCAR-3,> 100 µM (inactive)
same,GI50,NCI-H460,> 100 µM (inactive)
same,GI50,SF-295,> 100 µM (inactive)
same,GI50,HL-60,> 100 µM (inactive)
same,GI50,EKVX,> 100 µM (inactive)
same,GI50,SW-620,> 100 µM (inactive)
same,GI50,OVCAR-8,> 100 µM (inactive)
same,GI50,TK-10,> 100 µM (inactive)
same,GI50,NCI/ADR-RES,> 100 µM (inactive)
same,GI50,OVCAR-5,> 100 µM (inactive)
same,GI50,NCI-H23,> 100 µM (inactive)
same,GI50,KM12,> 100 µM (inactive)
same,GI50,COLO 205,> 100 µM (inactive)
same,GI50,Hs-578T,82.2 µM (inactive)
same,GI50,HCT-15,> 100 µM
same,GI50,T47D,> 100 µM (inactive)
same,GI50,IGROV-1,> 100 µM (inactive)
same,GI50,M14,> 100 µM (inactive)
